What was measured:
[1] = Preliminary acute toxicity in mice; type: in vivo
Mouse sarcoma 180 (S180) = experiment: Anticancer activity against implanted mouse sarcoma 180 (S180), tumor weight; type: in vivo, mice; conditions: for Inhibition (%) (% reduction in tumor mass): S180 in mice, tumor harvested at day 12
Experimental: Animals: Kuiming mice 18-22 g were provided by the animal department of Bejing Medical University. ICR mice were provided by Beijing Weitonglihua Experiemental Animal Technology, Inc. Each experiment used the same number of male mice and female mice.
Tumor cell line: Mouse sarcoma 180 (S180) was provided by the pharmaceutical group of National Key Laboratory of Natural and Mimic Medicine.
Compound 42 was prepared by the School of Pharmaceutical Sciences of Peking University. Cyclophosphoramide was purchased from Shanghai Hualian Pharmaceutical, Inc.
Tumor was removed from the mouse abdominal cavity. The tumor was diluted to 5×10^6/ml and implanted to the left axilla subcutaneously (0.2 ml per mouse) under sterile conditions. Twenty four (24) hours after implantation, animals were divided into two groups (10 mice per group), either 42 or cyclophosphoramide was given orally to animals once a day for 10 days.
At day 12, the tumor was harvested and the average tumor weight of each group was calculated.

Row | SMILES | toxicity (in words) [1] | No of Death ([1]; mice, dose 10 G/kg, 20 animals at start) | inhibition against S180 (in words) (Mouse sarcoma 180 (S180)) | Inhibition (%) (% reduction in tumor mass) (Mouse sarcoma 180 (S180); 100 mg/kg orally once a day for 10 days) | Inhibition (%) (% reduction in tumor mass) (Mouse sarcoma 180 (S180); 500 mg/kg orally once a day for 10 days) | Inhibition (%) (% reduction in tumor mass) (Mouse sarcoma 180 (S180); 30 mg/kg orally once a day for 10 days)
1 | CN1CCN(C(=S)SCCC(C#N)(c2ccccc2)c2ccccc2)CC1.Cl [Compound 42, 4-Methyl-piperazine-1-carbodithioc acid 3-cyano-3,3-diphenyl-propyl ester hydrochloride] | low toxicity | 0 | significant inhibition | 74 | 80 | 
2 | O=P1(N(CCCl)CCCl)NCCCO1 (stereo not drawn) [Cyclophosphoramide, reference compound] |  |  |  |  |  | 73

Reference: US20030149021A1, “Piperazine mono(dithio)carbamate ester compounds and analogs thereof: preparation method and uses thereof” (Medinox, Inc., priority 2001, published 2003)
